Like-named read-outs stand apart in the source and are kept apart here.
Assay: Food effect cross-over study, 200 mg (25 mg tablets), healthy volunteers: plasma pharmacokinetics
Assay type: in vivo, human
Settings: for Plasma concentration, Geometric Mean / Plasma concentration, Mean / Plasma concentration, Median: Predose; for concentration at 1 h / concentration at 2 h / concentration at 3 h / concentration at 4 h / concentration at 5 h / concentration at 6 h / concentration at 9 h / concentration at 12 h / concentration at 18 h / concentration at 24 h / concentration at 36 h: human, plasma, oral; for concentration at 1 h: 1 hour postdose; for concentration at 2 h: 2 hours postdose; for concentration at 3 h: 3 hours postdose; for concentration at 4 h: 4 hours postdose; for concentration at 5 h: 5 hours postdose; for concentration at 6 h: 6 hours postdose; for concentration at 9 h: 9 hours postdose; for concentration at 12 h: 12 hours postdose; for concentration at 18 h: 18 hours postdose; for concentration at 24 h: 24 hours postdose; for concentration at 36 h: 36 hours postdose
From the text: This example describes a clinical study for establishing, in healthy volunteers, the effect of a high fat, high caloric meal on the PK profile of Compound I, as compared to administration of the drug in the fasted state. The study also was intended to determine the safety and tolerability after a single oral dose of Compound I in the fed and fasted state in healthy volunteers. The measurements of PK, PD, and other clinical parameters were done as described in Example 1 above.
This study was an open-label, randomized, two-period cross-over study in healthy volunteers aged 18-55 years. Subjects were screened up to 28 days before the first treatment period. Subjects were admitted to the clinical site on Day −1 (the day before dosing) of Period 1. Approximately half of the subjects randomly received a single dose of Compound I on Day 1 of the first treatment period after the ingestion of a high fat, high caloric breakfast, and the remainder were closed in the fasted state. Any subject with a preclose resting HR≥95 beats per minute (bpm) was considered ineligible and was not treated. Any subjects with an acute gastrointestinal disorder which could impact drug/food absorption (e.g., vomiting, diarrhea) were rescheduled. Subjects were confined to the clinic until Day 4, and discharged after the 72-hour postclose PK and laboratory samples and vital signs were obtained. After a washout between dosing from 7 to 10 days (or, after consultation with the Investigator, up to 21 days after initial dosing if the subject was unable to attend within the 7 to 10-day window), the subject was admitted for Period 2. The sequence of fed/fasted versus fasted/fed periods was randomized. Subjects returned after the second treatment period for a safety follow-up visit on Day 7 (±1 day).
In both treatment periods, Compound I was administered with 240 mL of water. In the fasted state, the subjects fasted for 10 hours before and for 4 hours after the administration of Compound I. Water could have been ingested up to 1 hour before and after 1 hour post dosing. In the fed state, the subjects fasted for 10 hours before and for 4 hours after the ingestion of the meal, but could have ingested water up to 1 hour before and 1 hour after dosing. In the fed state, the subjects started ingesting the high fat, high caloric meal within 30 minutes prior to Compound I administration and finished the meal within 30 minutes. The meal contained approximately 800 to 1000 calories with about 50% of the calories from fat. The meal consisted of approximately 150 calories from protein, 250 calories from carbohydrate, and 500-600 calories from fat. An example of the meal was a breakfast consisting of two eggs fried in butter, two strips of bacon, two slices of buttered toast, 4 ounces of hash brown potatoes, and 8 ounces of whole milk.
Each subject received two oral doses of 200 mg of Compound I formulated as 25 mg tablets (8 tablets) in a randomized, cross-over fashion, once in the fasted state and the other time after the ingestion of a high fat, high caloric breakfast. There was a washout of between 7 and 21 days between the administrations of the two closes. The Compound I drug substance was a crystalline, free-base, synthetic molecule with a molecular weight of 435.4.
Plasma drug concentrations were measured as described in Example 1 above. Blood samples to measure Compound I plasma concentration were collected at various time points, including on Day 1 preclose (1 hour prior to dosing) and at 1 (±5 min), 2 (±5 min), 3 (±5 min), 4 (+10 min), 5 (+10 min), 6 (+10 min), 9 (+20 min), 12 (+20 min), 18 (+30 min), 24 (+30 min), 36 (+30 min), 48 (+30 min), and 72 (+30 min) hours postclose on both treatment periods.
To assess the effect of food on the PK of Compound I, the two one-sided t-test procedure was used to construct 90% CI around the geometric mean ratios (fed/fasted) of plasma AUCinf, AUClast, and Cmax. […]

[1] = Fasted, read-out: Plasma concentration, Geometric Mean
[2] = Fasted, read-out: Plasma concentration, Mean
[3] = Fasted, read-out: Plasma concentration, Median
[4] = Fed, read-out: Plasma concentration, Geometric Mean
[5] = Fed, read-out: Plasma concentration, Mean
[6] = Fed, read-out: Plasma concentration, Median

Cn1cc(S(=O)(=O)[C@@](C)(F)C2CCN(C(=O)Nc3ccon3)CC2)c(C(F)F)n1 [Compound I, (R)-4-(1-((3-(difluoromethyl)-1-methyl-1H-pyrazol-4-yl)sulfonyl)-1-fluoroethyl)-N-(isoxazol-3-yl)piperidine-1-carboxamide]
exposure (Cmax) higher in the fed state versus the fasted state: ~60%
AUCinf, Geometric Mean Ratio - Fed/Fasted (N = 11): 154.28 % of Reference
AUClast, Geometric Mean Ratio - Fed/Fasted (N = 11): 154.02 % of Reference
Cmax, Geometric Mean Ratio - Fed/Fasted (N = 11): 158.11 % of Reference
Plasma concentration, Geometric Mean (Fasted): 0.000 ng/mL
Plasma concentration, Mean (Fasted): 0.000 ng/mL
Plasma concentration, Median (Fasted): 0.000 ng/mL
Plasma concentration, Geometric Mean (Fed): 0.000 ng/mL
Plasma concentration, Mean (Fed): 0.092 ng/mL
Plasma concentration, Median (Fed): 0.000 ng/mL
Tmax, Median (range) (fasted state): 5 h
Tmax, Median (range) (fed state): 5.5 h
concentration at 1 h [1]: 1180 ng/mL
concentration at 1 h [2]: 1360 ng/mL
concentration at 1 h [3]: 1600 ng/mL
concentration at 1 h [4]: 916 ng/mL
concentration at 1 h [5]: 1320 ng/mL
concentration at 1 h [6]: 828 ng/mL
concentration at 2 h [1]: 1780 ng/mL
concentration at 2 h [2]: 1830 ng/mL
concentration at 2 h [3]: 1820 ng/mL
concentration at 2 h [4]: 1470 ng/mL
concentration at 2 h [5]: 1920 ng/mL
concentration at 2 h [6]: 1160 ng/mL
concentration at 3 h [1]: 2090 ng/mL
concentration at 3 h [2]: 2120 ng/mL
concentration at 3 h [3]: 2180 ng/mL
concentration at 3 h [4]: 2000 ng/mL
concentration at 3 h [5]: 2340 ng/mL
concentration at 3 h [6]: 2340 ng/mL
concentration at 4 h [1]: 2190 ng/mL
concentration at 4 h [2]: 2220 ng/mL
concentration at 4 h [3]: 2280 ng/mL
concentration at 4 h [4]: 2610 ng/mL
concentration at 4 h [5]: 2810 ng/mL
concentration at 4 h [6]: 3030 ng/mL
concentration at 5 h [1]: 2270 ng/mL
concentration at 5 h [2]: 2310 ng/mL
concentration at 5 h [3]: 2400 ng/mL
concentration at 5 h [4]: 3040 ng/mL
concentration at 5 h [5]: 3150 ng/mL
concentration at 5 h [6]: 3340 ng/mL
concentration at 6 h [1]: 2170 ng/mL
concentration at 6 h [2]: 2220 ng/mL
concentration at 6 h [3]: 2320 ng/mL
concentration at 6 h [4]: 3140 ng/mL
concentration at 6 h [5]: 3200 ng/mL
concentration at 6 h [6]: 3320 ng/mL
concentration at 9 h [1]: 1970 ng/mL
concentration at 9 h [2]: 2000 ng/mL
concentration at 9 h [3]: 2040 ng/mL
concentration at 9 h [4]: 3050 ng/mL
concentration at 9 h [5]: 3080 ng/mL
concentration at 9 h [6]: 3220 ng/mL
concentration at 12 h [1]: 1720 ng/mL
concentration at 12 h [2]: 1740 ng/mL
concentration at 12 h [3]: 1800 ng/mL
concentration at 12 h [4]: 2780 ng/mL
concentration at 12 h [5]: 2840 ng/mL
concentration at 12 h [6]: 2720 ng/mL
concentration at 18 h [1]: 1290 ng/mL
concentration at 18 h [2]: 1320 ng/mL
concentration at 18 h [3]: 1360 ng/mL
concentration at 18 h [4]: 2030 ng/mL
concentration at 18 h [5]: 2080 ng/mL
concentration at 18 h [6]: 2060 ng/mL
concentration at 24 h [1]: 1070 ng/mL
concentration at 24 h [2]: 1100 ng/mL
concentration at 24 h [3]: 1170 ng/mL
concentration at 24 h [4]: 1660 ng/mL
concentration at 24 h [5]: 1720 ng/mL
concentration at 24 h [6]: 1670 ng/mL
concentration at 36 h [1]: 546 ng/mL
concentration at 36 h [2]: 578 ng/mL
concentration at 36 h [3]: 596 ng/mL

Reference: patent publication US20220265629A1, “TREATMENT OF SYSTOLIC DYSFUNCTION AND HEART FAILURE WITH REDUCED EJECTION FRACTION WITH THE COMPOUND (R)-4-(1-((3-(DIFLUOROMETHYL)-1-METHYL-1H-PYRAZOL-4-YL)SULFONYL)-1-FLUOROETHYL)-N-(ISOXAZOL-3-YL)PIPERIDINE-1-CARBOXAMIDE” (MyoKardia, Inc., priority 2019, published 2022)
